What was measured:
endogenous Lck = endogenous Lck (Homo sapiens, UniProt P06239); experiment: Competitive profiling with probe 1 in Jurkat cells: Lck; format: cell-based; details: inhibitor at 300 nM, then 1 (1 µM, 15 min)
endogenous Blk = endogenous Blk (Homo sapiens, UniProt P51451); experiment: Competitive profiling with probe 1 in Jurkat cells: Blk; format: cell-based; details: inhibitor at 300 nM, then 1 (1 µM, 15 min)
endogenous Fyn = endogenous Fyn (Homo sapiens, UniProt P06241); experiment: Competitive profiling with probe 1 in Jurkat cells: Fyn; format: cell-based; details: inhibitor at 300 nM, then 1 (1 µM, 15 min)
Sequence of endogenous Fyn (P06241 1-534 isoform P06241-2): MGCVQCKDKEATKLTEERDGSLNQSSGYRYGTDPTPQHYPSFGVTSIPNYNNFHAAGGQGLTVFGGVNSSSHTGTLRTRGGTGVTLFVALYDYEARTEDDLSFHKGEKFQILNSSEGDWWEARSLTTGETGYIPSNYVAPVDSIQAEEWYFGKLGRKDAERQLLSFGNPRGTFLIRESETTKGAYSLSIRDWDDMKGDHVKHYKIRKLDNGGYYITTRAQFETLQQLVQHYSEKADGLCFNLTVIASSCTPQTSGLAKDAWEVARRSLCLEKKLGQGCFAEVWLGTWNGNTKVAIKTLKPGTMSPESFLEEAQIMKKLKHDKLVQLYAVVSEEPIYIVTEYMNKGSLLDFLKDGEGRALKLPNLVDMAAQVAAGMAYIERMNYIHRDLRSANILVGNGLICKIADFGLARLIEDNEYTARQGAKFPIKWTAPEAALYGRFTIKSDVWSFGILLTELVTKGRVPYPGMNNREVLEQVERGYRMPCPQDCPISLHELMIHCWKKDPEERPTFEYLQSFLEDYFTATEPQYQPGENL

endogenous Src = endogenous Src (Homo sapiens, UniProt P12931); details: Jurkat cells, inhibitor at 300 nM, then 1 (1 µM, 15 min)
Sequence of endogenous Src (P12931 whole entry): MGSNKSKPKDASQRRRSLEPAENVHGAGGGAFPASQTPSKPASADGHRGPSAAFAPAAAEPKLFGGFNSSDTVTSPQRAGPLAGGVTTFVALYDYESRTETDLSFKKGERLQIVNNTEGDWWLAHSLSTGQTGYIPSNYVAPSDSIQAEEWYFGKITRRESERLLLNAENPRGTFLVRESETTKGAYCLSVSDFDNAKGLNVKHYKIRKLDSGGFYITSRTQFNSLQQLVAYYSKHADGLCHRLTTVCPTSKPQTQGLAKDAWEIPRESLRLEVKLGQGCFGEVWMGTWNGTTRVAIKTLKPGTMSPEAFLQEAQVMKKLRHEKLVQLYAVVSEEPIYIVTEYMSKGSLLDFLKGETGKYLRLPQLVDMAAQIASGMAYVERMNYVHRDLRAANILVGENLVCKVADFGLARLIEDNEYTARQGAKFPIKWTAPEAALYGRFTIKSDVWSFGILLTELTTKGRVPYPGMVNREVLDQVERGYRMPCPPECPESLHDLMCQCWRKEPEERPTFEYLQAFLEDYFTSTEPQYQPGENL

[1] = in humans; cited from earlier work
Src = Src kinase assay; format: biochemical; details: read-out: IC50 (inactive up to); Src pretreated 30 min in the presence of 0.25 mM ATP prior to initiating the kinase reaction

Sequence of endogenous Lck (P06239 whole entry): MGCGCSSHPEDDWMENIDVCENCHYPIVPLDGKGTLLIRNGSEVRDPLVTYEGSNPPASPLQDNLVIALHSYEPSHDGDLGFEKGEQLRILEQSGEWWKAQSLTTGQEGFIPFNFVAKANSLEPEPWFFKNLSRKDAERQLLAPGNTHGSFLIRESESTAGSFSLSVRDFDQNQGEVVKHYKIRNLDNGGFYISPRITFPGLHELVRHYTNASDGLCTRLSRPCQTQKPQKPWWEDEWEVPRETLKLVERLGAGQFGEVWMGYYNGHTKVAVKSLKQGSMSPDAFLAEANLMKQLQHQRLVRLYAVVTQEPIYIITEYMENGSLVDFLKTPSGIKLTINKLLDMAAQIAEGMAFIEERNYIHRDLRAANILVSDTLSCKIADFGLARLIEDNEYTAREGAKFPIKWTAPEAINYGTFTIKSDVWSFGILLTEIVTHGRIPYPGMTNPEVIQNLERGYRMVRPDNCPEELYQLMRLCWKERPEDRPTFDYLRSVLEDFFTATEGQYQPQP
Sequence of endogenous Blk (P51451 whole entry): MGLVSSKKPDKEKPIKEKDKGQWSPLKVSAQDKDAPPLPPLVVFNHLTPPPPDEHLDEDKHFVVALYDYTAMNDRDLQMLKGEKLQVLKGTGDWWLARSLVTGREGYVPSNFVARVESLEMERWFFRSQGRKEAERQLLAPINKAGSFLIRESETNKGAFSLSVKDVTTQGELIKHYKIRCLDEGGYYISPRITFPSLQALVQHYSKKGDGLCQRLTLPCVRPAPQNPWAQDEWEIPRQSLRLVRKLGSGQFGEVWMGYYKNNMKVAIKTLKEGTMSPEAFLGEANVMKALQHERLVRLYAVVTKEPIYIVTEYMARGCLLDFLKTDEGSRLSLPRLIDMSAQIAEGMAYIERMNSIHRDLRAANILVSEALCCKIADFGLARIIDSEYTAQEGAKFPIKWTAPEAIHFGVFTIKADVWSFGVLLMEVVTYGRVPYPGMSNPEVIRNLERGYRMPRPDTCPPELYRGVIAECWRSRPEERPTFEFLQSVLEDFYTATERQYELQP

SMILES	labeling of endogenous Lck by 1 (endogenous Lck)	labeling of endogenous Blk by 1 (endogenous Blk)	labeling of endogenous Fyn by 1 (endogenous Fyn)	labeling of endogenous Src by 1 (endogenous Src)	mean steady-state concentrations [1] [nM]	IC50 (Src) [µM]
Cc1ccc(C(=O)Nc2ccc(CN3CCN(C)CC3)c(C(F)(F)F)c2)cc1C#Cc1cnc2cccnn12 [ponatinib]	abrogated labeling	abrogated labeling	unaffected	unaffected	75 to 180	–
Nc1ncnc2c1ncn2[C@@H]1O[C@H](COC(=O)c2ccc(S(=O)(=O)F)cc2)[C@@H](O)[C@H]1O [FSBA, p-fluorosulfonylbenzoyl adenosine]	–	–	–	–	–	> 10
